25 compounds from patent US20120040930A1, “TETRACYCLIC TERPENE SERIES COMPOUNDS, METHODS FOR PREPARING SAME, USES THEREOF AS MEDICINES AND PHARMACEUTICAL COMPOUNDS CONTAINING SAME” (priority 2005, published 2012) can be followed below.

T1 sequence (O42275 24-633): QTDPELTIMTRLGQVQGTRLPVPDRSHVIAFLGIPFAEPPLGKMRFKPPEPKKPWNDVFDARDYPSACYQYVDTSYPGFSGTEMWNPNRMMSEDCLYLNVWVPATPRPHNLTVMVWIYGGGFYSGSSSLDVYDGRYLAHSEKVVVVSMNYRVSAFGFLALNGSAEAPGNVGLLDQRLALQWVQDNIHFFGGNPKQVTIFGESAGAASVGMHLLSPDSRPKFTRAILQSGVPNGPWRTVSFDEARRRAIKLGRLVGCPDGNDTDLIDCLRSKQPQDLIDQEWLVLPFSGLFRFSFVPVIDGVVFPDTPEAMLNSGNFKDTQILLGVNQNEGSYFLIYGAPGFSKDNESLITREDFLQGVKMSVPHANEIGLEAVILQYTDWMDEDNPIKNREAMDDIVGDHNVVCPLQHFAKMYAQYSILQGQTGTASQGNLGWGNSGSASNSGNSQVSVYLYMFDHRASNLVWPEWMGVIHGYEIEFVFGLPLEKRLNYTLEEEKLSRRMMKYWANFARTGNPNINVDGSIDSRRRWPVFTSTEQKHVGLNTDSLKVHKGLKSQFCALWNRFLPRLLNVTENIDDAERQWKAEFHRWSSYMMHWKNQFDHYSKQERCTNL

One assay addresses T1, acetylcholinesterase (AChE) isolated from Electrophorus electricus (Electrophorus electricus, UniProt O42275).
T1 construct: AChE isolated from Electrophorus electricus; from tissue
Briefly: biochemical. The following applies: AChE IC50.
For the compound `CC(=O)O[C@@H]1C[C@@]2(C)[C@@H]3CC[C@@H]4C(=CC[C@@H]5N=C(C(C)C)OC[C@]54C)C[C@H]3C(=O)C[C@]2(C)[C@H]1[C@H](C)N(C)C` [Compound 40], the IC50 was 112 nM.

As for `CC(C)C1=NC2CCC34C[C@]35C(=O)C[C@]3(C)[C@@H]([C@H](C)N(C)C)[C@H](O)C[C@@]3(C)[C@@H]5CC[C@H]4[C@]2(C)CN1` (stereo partly drawn) [Compound 51, (20S)-20-dimethylamino-9,19-cyclo-4β,14α-dimethyl-(2-isopropyl-5β-methyl-1,4,5,6-tetrahydro-pyrimidin-5-yl)-5α,9β-pregnan-16α-ol-11-one], inhibition was half-maximal at 18 nM (IC50).

`CC(C)C(=O)N[C@H]1CCC23C[C@]24C(=O)C[C@]2(C)[C@@H]([C@H](C)N(C)C)[C@H](O)C[C@@]2(C)[C@@H]4CC[C@H]3[C@]1(C)CN` (stereo partly drawn) [Compound 49, (20S)-20-dimethylamino-3β-(isobutyrylamino)-9,19-cyclo-4α-aminomethyl-4β,14α-dimethyl-5α,9β-pregnan-16α-ol-11-one] gave a half-inhibitory concentration (IC50) of 1340 nM.

As for `CC(C)C1=N[C@H]2CC=C3C[C@H]4C(=O)C[C@]5(C)[C@@H]([C@H](C)N(C)C)[C@H](OC(=O)C(C)(C)C)C[C@@]5(C)[C@@H]4CC[C@H]3[C@]2(C)CO1` [Compound 39, (20S)-10(9->1)abeo-20-dimethylamino-4β,14α-dimethyl-16α-pivalyl-(2′-isopropyl-3,29-dihydro-4H-[1,3]-oxazine)-5α,9β-pregn-1(10)-en-11-one], the 50% inhibitory concentration (IC50) stood at 198 nM.

Staying with this assay, now noted: AChE isolated from Electrophorus electricus; read-out: AChE IC50.
Consider `CC(C)C1=N[C@H]2CCC34C[C@]35C(=O)C[C@]3(C)[C@@H]([C@H](C)N(C)C)[C@H](OC(=O)C(C)(C)C)C[C@@]3(C)[C@@H]5CC[C@H]4[C@]2(C)CO1` (stereo partly drawn) [Compound 38, (20S)-20-dimethylamino-9,19-cyclo-4β,14α-dimethyl-16α-pivalyl-(2′-isopropyl-3,29-dihydro-4H-[1,3]-oxazine)-5α,9β-pregn-11-one], for which the IC50 is 181 nM.

On to `CC(=O)OC[C@]1(C)[C@@H](NC(=O)C(C)C)CCC23C[C@]24C(=O)C[C@]2(C)[C@@H]([C@H](C)N(C)C)[C@H](OC(C)=O)C[C@@]2(C)[C@@H]4CC[C@H]31` (stereo partly drawn) [Compound 42, (20S)-16α-acetyl-3β-isobutyrylamino-20-dimethylamino-9,19-cyclo-4β,14α-dimethyl-4α-acetylmethyl-5α,9β-pregnan-11-one], for which the IC50 was above 100000 nM.

In the case of `CC[C@H](C)C(=O)N[C@H]1CCC23C[C@@]24[C@@H](CC[C@H]3[C@]1(C)CO)[C@]1(C)C[C@@H](O)[C@H]([C@H](C)N(C)C)[C@@]1(C)C[C@@H]4O` (stereo partly drawn) [Compound 35, (20S)-20-dimethylamino-3β-((S)-2-methylbutyrylamino)-9,19-cyclo-4α-hydroxymethyl-4β,14α-dimethyl-5α,9β-pregnan-11β,16α-diol-11-one], the half-maximal inhibitory concentration (IC50) was above 100000 nM.

For `CC(C)[C@H]1N[C@H]2CC=C3C[C@H]4C(=O)C[C@]5(C)[C@@H]([C@H](C)N(C)C)[C@H](O)C[C@@]5(C)[C@@H]4CC[C@H]3[C@]2(C)CO1` [Compound 12, (20S)-10(9->1)abeo-4,14α-dimethyl-20-dimethylamino(2′β-isopropyl-1′,2′,4′,4′-tetrahydro[3′,1′]oxazin)-5α,9-pregn-1(10)-en-16α-ol-11-one], the IC50 came out at 823 nM.

With `CC1=N[C@H]2CC=C3C[C@H]4C(=O)C[C@]5(C)[C@@H]([C@H](C)N(C)C)[C@H](O)C[C@@]5(C)[C@@H]4CC[C@H]3[C@]2(C)CO1` [Compound 8a, (20S)-10(9->1)abeo-4,14α-dimethyl-20-dimethylamino(2′-methyl-4′,4′-dihydro[3′,1′]oxazin)-5α,9-pregn-1(10)-en-16α-ol-11-one], the IC50 worked out at 676 nM.

“(20S)-3β-isobutyrylamino-20-methylamino-9,19-cyclo-4α-benzylaminomethyl-4β,14α-dimethyl-16α-pivalyl-5α,9β-pregnan-11-one [Compound 48]”: the 50% inhibitory concentration (IC50) is 17500 nM.

Turning to `CC(C)C(=O)N[C@H]1CC[C@]23CC24C(=O)C[C@]2(C)[C@@H]([C@H](C)N(C)C)[C@H](O)C[C@@]2(C)[C@@H]4CC[C@H]3[C@]1(C)CS` (stereo partly shown) [Compound 76], the IC50 was 43000 nM.

`C[C@@H]([C@H]1[C@H](O)C[C@@]2(C)[C@@H]3CC[C@@H]4C5(CC[C@H](NC(=O)Cc6ccccc6)[C@@]4(C)CO)C[C@@]35C(=O)C[C@]12C)N(C)C` (stereo partly drawn) [Compound 6g, (20S)-9,19-cyclo-4α-hydroxymethyl-4,14α-dimethyl-20-dimethylamino-3 (phenylacetylamino)-5α,9-pregnan-16α-ol-11-one]: the 50% inhibitory concentration (IC50) is above 5000 nM.

Turning to `CC(=O)OC[C@]1(C)[C@@H](NC(=O)C(C)C)CCC23C[C@]24C(=O)C[C@]2(C)[C@@H]([C@H](C)N(C)C)[C@H](O)C[C@@]2(C)[C@@H]4CC[C@H]31` (stereo partly drawn) [Compound 41, (20S)-3β-isobutyrylamino-20-dimethylamino-9,19-cyclo-4β,14α-dimethyl-4α-acetylmethyl-5α,9β-pregnan-16α-ol-11-one], the IC50 was above 100000 nM.

As for `CN[C@@H](C)[C@H]1[C@H](O)C[C@@]2(C)[C@@H]3CC[C@@H]4C(=CCC5N=C(C(C)C)OC[C@]54C)C[C@H]3C(=O)C[C@]12C` (stereo partly drawn) [Compound 33, (20S)-10(9->1)abeo-20-methylamino-4β,14α-dimethyl-(2′-isopropyl-3,29-dihydro-4H-[1,3]-oxazine)-5α,9β-pregn-1(10)-en-16α-ol-11-one], the concentration for half-maximal inhibition (IC50) is 106 nM.

Consider `CC[C@H](C)C(=O)N[C@H]1CCC23C[C@]24C(=O)C[C@]2(C)[C@@H]([C@H](C)N(C)C)[C@H](O)C[C@@]2(C)[C@@H]4CC[C@H]3[C@]1(C)C=O` (stereo partly drawn) [Compound 60, (20S)-20-dimethylamino-3β-((S)-2-methylbutyrylamino)-9,19-cyclo-4α-formyl-4β,14α-dimethyl-5α,9β-pregnan-16α-ol-11-one], for which the half-inhibitory concentration (IC50) is above 100000 nM.

`CC[C@H](C)C(=O)N[C@H]1CCC23C[C@]24C(=O)C[C@]2(C)[C@@H]([C@H](C)N(C)C)[C@H](O)C[C@@]2(C)[C@@H]4CC[C@H]3[C@]1(C)CNCc1ccccc1` (stereo partly drawn) [Compound 62, (20S)-20-dimethylamino-3β-((S)-2-methylbutyrylamino)-9,19-cyclo-4α-benzylaminomethyl-4β,14α-dimethyl-5α,9β-pregnan-16α-ol-11-one]: the half-inhibitory concentration (IC50) is at least 100000 nM.

On to `CC(C)C1=NC2CCC34C[C@]35C(=O)C[C@]3(C)[C@@H]([C@H](C)N(C)C)[C@H](OC(=O)C(C)(C)C)C[C@@]3(C)[C@@H]5CC[C@H]4[C@]2(C)CN1` (stereo partly drawn) [Compound 52, (20S)-20-dimethylamino-9,19-cyclo-4β,14α-dimethyl-16α-pivalyl-(2′-isopropyl-1′/3′,3,29-tetrahydropyrimidine)-5α,9β-pregnan-11-one], for which the concentration for half-maximal inhibition (IC50) came to 29 nM.

Take `CC(C)C(=O)N[C@H]1CCC23C[C@]24C(=O)C[C@]2(C)[C@@H]([C@H](C)N(C)C)[C@H](OC(=O)C(C)(C)C)C[C@@]2(C)[C@@H]4CC[C@H]3[C@]1(C)CNC([Si](C)(C)C)[Si](C)(C)C` (stereo partly drawn) [Compound 56, (20S)-3β-isobutyrylamino-20-dimethylamino-9,19-cyclo-4β,14α-dimethyl-4α-(bis-(trimethylsilanyl)methylamino)methyl-16α-pivalyl-5α,9β-pregnan-11-one]: the IC50 is above 100000 nM.

With `CC[C@H](C)C(=O)N[C@H]1CC=C2C[C@H]3C(=O)C[C@]4(C)[C@@H]([C@H](C)N(C)C)[C@H](OC(C)=O)C[C@@]4(C)[C@@H]3CC[C@H]2[C@]1(C)C=O` [Compound 66], the IC50 was above 100000 nM.

For the compound `CC[C@H](C)C(=O)N[C@H]1CCC23C[C@]24C(=O)C[C@]2(C)[C@@H]([C@H](C)N(C)C)[C@H](OC(C)=O)C[C@@]2(C)[C@@H]4CC[C@H]3[C@]1(C)C=O` (stereo partly drawn) [Compound 59, (20S)-16α-acetyl-3β-((S)-2-methylbutyrylamino)-20-dimethylamino-9,19-cyclo-4α-formyl-4β,14α-dimethyl-5α,9β-pregnan-11-one], the half-maximal inhibitory concentration (IC50) was above 100000 nM.

`CC[C@H](C)C(=O)N[C@H]1CCC23C[C@]24C(=O)C[C@]2(C)[C@@H]([C@H](C)N(C)C)[C@H](O)C[C@@]2(C)[C@@H]4CC[C@H]3[C@]1(C)/C=N/Cc1ccccc1` (stereo partly drawn) [Compound 61, (20S)-20-dimethylamino-3β-((S)-2-methylbutyrylamino)-9,19-cyclo-4α-benzyliminomethyl-4β,14α-dimethyl-5α,9β-pregnan-16α-ol-11-one]: the IC50 is above 100000 nM.

Take `CC[C@H](C)C(=O)N[C@H]1CCC23C[C@]24C(=O)C[C@]2(C)[C@@H]([C@H](C)N(C)C)[C@H](O)C[C@@]2(C)[C@@H]4CC[C@H]3[C@]1(C)CN` (stereo partly drawn) [Compound 63, (20S)-20-dimethylamino-3β-((S)-2-methylbutyrylamino)-9,19-cyclo-4α-aminomethyl-4β,14α-dimethyl-5α,9β-pregnan-16α-ol-11-one]: the concentration for half-maximal inhibition (IC50) was 637 nM.

As to `CC[C@H](C)C(=O)N[C@H]1CC=C2C[C@H]3C(=O)C[C@]4(C)[C@@H]([C@H](C)N(C)C)[C@H](O)C[C@@]4(C)[C@@H]3CC[C@H]2[C@]1(C)C=O` [Compound 67, (20S)-10(9->1)-abeo-20-dimethylamino-3-((S)-2-methylbutyrylamino)-4α-formyl-4β,14α-dimethyl-5α,9β-pregn-1(10)-en-16α-ol-11-one], the IC50 was above 100000 nM.

Staying with this assay, now noted: read-out: AChE IC50.
Consider `C[C@@H]([C@H]1[C@H](O)C[C@@]2(C)[C@@H]3CC[C@@H]4C(=CC[C@@H]5N=C(c6ccccc6)OC[C@]54C)C[C@H]3C(=O)C[C@]12C)N(C)C` [Compound 8b, (20S)-10(9->1)abeo-4,14α-dimethyl-20-dimethylamino(2′-phenyl-4′,4′-dihydro[3′,1′]oxazin)-5α,9-pregn-1(10)-en-16α-ol-11-one], for which the half-maximal inhibitory concentration (IC50) came to 7650 nM.

Take `CC[C@H](C)C1=N[C@H]2CC=C3C[C@H]4C(=O)C[C@]5(C)[C@@H]([C@H](C)N(C)C)[C@H](O)C[C@@]5(C)[C@@H]4CC[C@H]3[C@]2(C)CN1` [Compound 71, (20S)-10(9->1)-abeo-20-dimethylamino-4β,14α-dimethyl-(2-(S)-sec-butyl-5β-methyl-1,4,5,6-tetrahydro-pyrimidin-5-yl)-5α,9β-pregnan-1(10)-en-16α-ol-11-one]: the IC50 amounted to 28 nM.
